Source: the NIST ThermoML archive (doi:10.1016/j.jct.2014.07.018)

Details: for molar entropy: 101.33 kPa, Vacuum adiabatic calorimetry; for Triple point temperature / Glass transition temperature: Adiabatic calorimetry

CCCCn1cc[n+](C)c1.[I-] [1-butyl-3-methylimidazolium iodide]
molar entropy [J/K/mol]
Details	Crystal	Glass	Liquid
0 K	–	15.2	–
5 K	0.279	15.7	–
10 K	2.27	18.7	–
15 K	6.48	24	–
20 K	12.19	30.7	–
25 K	18.74	38.1	–
30 K	25.76	46	–
35 K	32.98	54.1	–
40 K	40.24	62.1	–
45 K	47.47	70.1	–
50 K	54.62	77.9	–
60 K	68.59	93.1	–
70 K	82.02	107.7	–
80 K	94.91	121.6	–
90 K	107.3	135	–
100 K	119.2	147.9	–
110 K	130.6	160.2	–
120 K	141.7	172	–
130 K	152.3	183.5	–
140 K	162.6	194.6	–
150 K	172.6	205.3	–
160 K	182.3	215.8	–
170 K	191.8	226.1	–
180 K	201.1	236.1	–
190 K	210.2	246	–
200 K	219.2	255.8	–
210 K	228.1	–	266.8
220 K	236.8	–	280.1
230 K	245.5	–	292.9
240 K	254.1	–	305.3
250 K	262.7	–	317.3
260 K	271.2	–	328.9
270 K	279.8	–	340.1
280 K	288.5	–	351.1
290 K	297.2	–	361.9
291.92 K	298.8	–	363.9
298.15 K	–	–	370.4
300 K	–	–	372.3
310 K	–	–	382.6
320 K	–	–	392.6
330 K	–	–	402.4
340 K	–	–	412.1
350 K	–	–	421.5
360 K	–	–	430.9
370 K	–	–	440

Details	Glass transition temperature [°C]	Triple point temperature [K]
Crystal	–	291.92
Glass	-66	–

CCC[n+]1ccn(C)c1.[Br-] [1-methyl-3-propylimidazolium bromide]
molar entropy [J/K/mol]
Details	Crystal 2	Glass	Liquid
0 K	–	15.3	–
5 K	0.097	15.6	–
10 K	0.884	17.7	–
15 K	3.03	21.6	–
20 K	6.53	26.8	–
25 K	11.08	32.9	–
30 K	16.39	39.5	–
35 K	22.19	46.3	–
40 K	28.28	53.3	–
45 K	34.52	60.2	–
50 K	40.8	67.1	–
60 K	53.3	80.6	–
70 K	65.48	93.6	–
80 K	77.24	106.1	–
90 K	88.54	118.1	–
100 K	99.4	129.6	–
110 K	109.8	140.6	–
120 K	119.9	151.2	–
130 K	129.6	161.4	–
140 K	139	171.3	–
150 K	148	180.8	–
160 K	156.9	190.2	–
170 K	165.5	199.3	–
180 K	173.9	208.2	–
190 K	182.2	217	–
200 K	190.2	225.6	–
210 K	198.2	234.3	–
220 K	206.1	–	244.9
230 K	213.8	–	256.5
240 K	221.5	–	267.7
250 K	229.2	–	278.5
260 K	236.8	–	289
270 K	244.4	–	299.2
280 K	252.1	–	309.1
290 K	259.9	–	318.8
298.15 K	266.3	–	326.6
300 K	–	–	328.3
309.54 K	275.4	–	337.2
310 K	–	–	337.6
320 K	–	–	346.7
330 K	–	–	355.6
340 K	–	–	364.4
350 K	–	–	373
360 K	–	–	381.5
370 K	–	–	389.8

Details	Glass transition temperature [°C]	Triple point temperature [K]
Crystal 2	–	309.54
Glass	-60	–
